Results: US9421249B2, “Methods to activate or block the HLA-E/Qa-1 restricted CD8+ T cell regulatory pathway to treat immunological disease” (THE TRUSTEES OF COLUMBIA UNIVERSITY IN THE CITY OF NEW YORK, priority 2007, dated 2016)
Each block holds one substance with its values, some of them ahead of it. Where no end group is shown, it is not given here.

Legend:
EAE in B10PL mice = experiment: Peptide vaccination in EAE model; type: in vivo; conditions: B10PL mice immunized subcutaneously with antigen emulsified with IFA; compared with IFA alone
Excerpt: B10PL mice were vaccinated with either 1-9NacMBP, a MHC Class II biding peptide derived from MBP or p277, a MHC Class II biding peptide derived from Hsp60. In this regard, it is well known that 1-9NacMBP is a pathogenic peptide in B10PL mice and p277 may be involved in the pathogenesis of T1D in certain mouse strains (174) but irrelevant to EAE.

T1D in NOD mice = experiment: Peptide vaccination in spontaneous T1D model; conditions: NOD mice immunized subcutaneously with antigen emulsified with IFA; compared with IFA alone
Procedure: In the standard protocol used throughout this study female 8-10 weeks old B10PL or 3-4 weeks old NOD mice were immunized subcutaneously with 1-9Nac MBP or p277 emulsified with IFA at 100 uM/mouse as described. EAE was induced at least one week after peptide vaccination. CD8+ T cells were purified from spleens and draining lymph nodes of peptide vaccination protected EAE/B10PL mice or T1D/NOD mice by positive selection with CD8 MACS magnetic beads (Miltenyibiotec, Inc. Auburn Calif.). The purity of CD8+ T cells is routinely >95%.
The effect of peptide vaccination or adoptive transfer of CD8+ T cells was evaluated by assessing the clinical EAE (181) or T1D in the recipient mice.

Qa-1 [1] = experiment: Qa-1 binding assay (stabilization of Qa-1a surface expression on 3F4 transfectants, FACS); set-up: species or system murine; conditions: 3F4 cells, peptide 50 μM, 26° C., approximately 18 hours
Procedure: The capacity of the peptides to bind to Qa-1 was first assessed by their ability to stabilize Qa-1 surface expression on 3F4 cells. The 3F4 cells were incubated at 26° C. for approximately 18 hours with Hsp60sp or Qdm peptides and a Qa-1 non-binding peptide HEL 74-96 served as control peptide (12, 14 and 17). As shown by FIG. 6, the binding of exogenous peptide at 26° C. causes a shift in the intensity of Qa-1a surface staining analyzed by FACS.
Selected Qa-1a-PcDNA3.1 positive transfectants detected by RT-PCR were assayed for their Qa-1 surface expression after loading with known Qa-1 binding peptides. In brief, Qa-1a transfectants were incubated at 26° C. for approximately 18 hours with Hsp60sp or Qdm peptides (10, 12 and 17). The surface expression of Qa-1a was assessed by staining with anti-Qa-1a sera followed by Phycoerythorine (PE)-goat anti-mouse Ig, analyzed on a FACScan flow cytometer and CellQuest™ software (Becton Dickinson, Mountain View, Calif.)(1). All peptides were used at 50 μM unless specifically indicated.

CD94/NKG2A [2] = experiment: NK assay with peptide-loaded 3F4 cells; type: cell-based; conditions: 3F4 cells loaded with peptide at 26° C. overnight; mouse NK cells 2 hrs
Excerpt: Since a significant number of murine CD8+ T cells express CD94/NKG2A, it was investigated whether Qa-1/Hsp60sp generated in activated murine T cells is capable of interacting with CD94/NKG2A in a functional NK assay. […] This is also compatible with the notion that two types of Qa-1/HLA-E binding peptides could be distinguished by their ability of interact with CD94/NKG2A in both humans (14) and mice.
NK cell lines are routinely established from B10PL mice (24). Unlabeled 3F4 cells were loaded with test peptides at 26° C. overnight and mixed with an equal number of CFSE labeled human EBV transformed LCL cells which are not susceptible to the killing by mouse NK cells. Graded numbers of mouse NK cells were added to the mixture of 3F4 and LCL cells and further incubated at 37° C. for 2 hrs. 3F4 cells, which were not loaded with peptides or loaded with non-Qa-1 binding peptides served as controls. The cell mixtures were then stained with anti mouse H-2^U mAb 3-8-3P-PE to distinguish NK cells from target cells. The change in the ratio of 3F4 to LCL cells in the presence or absence of NK cells in each group detected by FACS (1) reflects the specific NK killing: % specific killing={[the killing ratio in control wells (without NK)−the killing ratio in experimental wells (with NK)]/the killing ratio of control wells}×100%.

Qa-1/HLA-E = conditions: cited from earlier work
Qa-1 [3] = experiment: Peptide competition assay (functional NK assay); type: cell-based, murine; conditions: Qdm 20 μM; competing peptide 50, 100, 200 μM; 18 hrs at 26° C.; E/T ratio 2:1
Procedure: The ability of the Hsp60sp to compete with Qdm for binding to Qa-1 was further tested in a functional NK assay.
Competing peptides (Hsp60sp or control non-Qa-1 binding peptide) at 50, 100, 200 μM were added to the 3F4 cells, together with 20 μM Qdm for 18 hrs at 26° C. (14). Equal numbers of CFSE labeled LCL cells were mixed with 3F4 cells and NK cells were then added into the mixture of peptide loaded 3F4 cells and LCL cells. The percent NK killing of 3F4 cells was evaluated.

[4] = tested on: Qa-1 dependent CD8+ T cells; experiment: CD8+ T cell inhibition assay, CD8+ T cells from EAE recovered mice; type: cell-based; conditions: CD8+ T cells isolated from EAE recovered B10PL mice
Excerpt: It was next tested if Qa-1/Hsp60sp is the target for the regulatory CD8+ T cells. […] The Qa-1 expressing 3F4 cell was used as the Qa-1 peptide presenting cell to test if Hsp60sp is preferentially recognized by the regulatory CD8+ T cells in a CD8+ T cell inhibition assay. The 1-9NacMBP (myelin basic protein) specific, intermediate avidity clone 1AE10, capable of inducing EAE in vivo (8, 19) served as a positive control, and a non-encephalitogenic, low avidity clone 4D10 as well as 3F4 loaded with control non-Qa-1 binding peptide or Qdm served as negative controls. […] Thus, Hsp60sp is, indeed, a specific target recognized by the CD8+ T cells, when presented by Qa-1.
3F4 cells were passively loaded with peptides overnight at 26° C. Equal number of unlabeled 3F4 cells loaded with peptides and CFSE labeled 3F4 cells that are not loaded with peptide were mixed and a graded number of CD8+ T cells were added to the targets. […] The ratio between peptide-loaded (non-CFSE-labeled) 3F4 cells and non-loaded (CFSE labeled) 3F4 cells in the presence of CD8+ T cells was determined as % of specific inhibition: {[the ratio of loaded to unloaded 3F4 cells in control cultures (without CD8+ T cells)−the ratio in experimental cultures (with CD8+ T cells)]/the ratio in control cultures}×100% (1).

[5] = tested on: Qa-1 restricted CD8+ T cells; experiment: CD8+ T cell inhibition assay, CD8+ T cells from peptide vaccination protected mice; type: cell-based
Excerpt: To test this hypothesis, a Qa-1a expressing cell 3F4 was used as peptide-presenting cell to determine the specificity of the CD8+ T cells isolated from either 1-9Nac MBP or p277 vaccination protected B10PL and NOD mice.
Physiological target T cells, the intermediate avidity 1-9Nac MBP specific clone 1AE10 from B10PL mice and p277 specific clone 15A6 from NOD mice served as positive controls, and low avidity MBP specific clone 4D10 and p277 specific clone 1304 served as negative control to assess the function and the specificity of the CD8+ T cells. It is noted that “quantitative” but not “qualitative” differences between the Qa-1/Hsp60sp versus Qa-1/Qdm is a function of avidity of T cell activation which determines their susceptibility to the down-regulation by the CD8+ T.
3F4 cells were passively loaded with peptides overnight at 26° C. Equal number of unlabeled 3F4 cells loaded with peptides and CFSE labeled 3F4 cells that are not loaded with peptide were mixed and a graded number of CD8+ T cells were added to the targets. […] 4 days later, the cell mixtures were stained with anti-mouse CD8-PE mAb to distinguish CD8+ T cells from target cells and the CD8+ T cells were gated out during the analysis when the ratio between two types of targets were calculated. […]

[6] = tested on: HLA-E restricted CD8+ T cells; experiment: CD8+ T cell inhibition CFSE assay on HLA-E transfectants loaded with peptide; type: cell-based, human
Excerpt: Data obtained in human studies support the concept established in the murine studies.
To test if HLA-E restricted CD8+ T cells also play a similar role in the control of human T1D, the function of CD8+ T cells in freshly isolated PBMC from T1D patients was first tested. For this purpose two assays were employed. The first is a standard T cell proliferation assay measuring self non-self discrimination, comparing the overall immune responses of human PBMC to self versus foreign antigens in the presence or absence of CD8+ T cells. Thus, intact PBMC populations or purified CD4+ T cells were cultured with varying doses of the self-antigen GAD or foreign antigen TT. Comparing PBMC with purified CD4+ T cells could not alone definitively pinpoint the function of the CD8+ T cells contained in the PBMC. […] This is the case in testing the function of CD8+ T cells in T1D patients combined with the CD8+ T cell inhibition CFSE assay, which can be applied as a relative simple and feasible clinical test. […] We then proceeded to further identify the specificity of the CD8+ T cells. Thus, purified CD8+ T cells from T1D patients were tested on HLA-E transfectant H3B2 cells loaded with Hsp60sp. H3B2 loaded with B7sp or non-HLA-E binding peptide served as controls.
CD8+ T cells were in vitro primed with DCs loaded with either Hsp60sp [CD8(H)], or B7sp [CD8(B)] and tested for their specificity and the function of self-nonself discrimination using the two assays described above. […] To verify the restored function of the CD8+ T cells, these CD8+ T cell lines were also tested in a CFSE assay on HLA-E transfectant H3B2 cells loaded with Hsp60sp. A CD8(B) line from each patient served as control. […] This phenomenon has been observed in about 60% of the 10 total T1D patients tested to date.

CD94/NKG2A [7] = target: CD94/NKG2A (Homo sapiens, UniProt P26715+Q13241); conditions: cited from earlier work
Chain of CD94/NKG2A (Homo sapiens, UniProt P26715+Q13241) (Q13241 whole entry): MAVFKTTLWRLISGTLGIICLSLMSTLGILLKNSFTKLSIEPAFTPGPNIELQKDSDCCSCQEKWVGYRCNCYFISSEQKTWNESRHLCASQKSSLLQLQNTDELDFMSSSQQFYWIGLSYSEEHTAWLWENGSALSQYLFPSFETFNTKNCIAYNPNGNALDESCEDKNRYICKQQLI
Chain of CD94/NKG2A (Homo sapiens, UniProt P26715+Q13241) (P26715 whole entry): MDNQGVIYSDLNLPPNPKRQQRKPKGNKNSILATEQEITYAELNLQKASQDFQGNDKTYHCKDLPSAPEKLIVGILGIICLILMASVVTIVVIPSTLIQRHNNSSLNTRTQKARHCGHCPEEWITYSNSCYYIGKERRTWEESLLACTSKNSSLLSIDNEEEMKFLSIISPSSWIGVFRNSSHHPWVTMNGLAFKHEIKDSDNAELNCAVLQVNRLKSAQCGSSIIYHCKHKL

Substance: AcASGLAPSGA (Ac-ASGLAPSGA; listed as Mus musculus) [1-9Nac MBP]
Protection from subsequently induced EAE (EAE in B10PL mice): equally effectively protected from EAE | Protection from spontaneously developed T1D (T1D in NOD mice): equally protected NOD mice from spontaneously developed T1D

Substance: AMAPRTLLL [Qdm]
Binding to Qa-1 (shift in intensity of Qa-1a surface staining) (Qa-1 [1]): could bind to Qa-1 | Inhibition of NK killing of peptide-loaded 3F4 cells (CD94/NKG2A [2]): resistant to the NK killing | Binding to Qa-1 (Qa-1/HLA-E): binds with high affinity

Substance: HEL: conventional foreign antigen Hen Egg Lysozyme
Protection from subsequently induced EAE (EAE in B10PL mice): CD8+ T cell dependent protection from either EAE or T1D | Protection from spontaneously developed T1D (T1D in NOD mice): CD8+ T cell dependent protection from either EAE or T1D

Binding to Qa-1 (shift in intensity of Qa-1a surface staining) (Qa-1 [1]): could bind to Qa-1
Substance: QMRPVSRAL (listed as Mus musculus) [Hsp60sp]
Inhibition of NK killing of peptide-loaded 3F4 cells (CD94/NKG2A [2]): does not inhibit NK killing | Competition with Qdm for binding to Qa-1 (abrogation of Qdm protection from NK killing) (Qa-1 [3]): abrogated the protection of NK killing of 3F4 by Qdm in a dose dependent manner | Susceptibility of peptide-loaded 3F4 cells to down-regulation by CD8+ T cells [4]: susceptible to the down-regulation by the CD8+ T cells | Down-regulation of peptide-sensitized 3F4 cells by CD8+ T cells ([5]; CD8+ T cells from 1-9Nac MBP or p277 vaccination protected B10PL mice): efficiently down-regulated | Down-regulation of peptide-sensitized 3F4 cells by CD8+ T cells ([5]; CD8+ T cells from p277 or 1-9Nac MBP vaccination protected NOD mice): efficiently down-regulated | Inhibition of H3B2 cells loaded with peptide by CD8(H) ([6]; CD8(H) line from a T1D patient, after in vitro priming with DCs loaded with Hsp60sp): specifically inhibited | Inhibition of H3B2 cells loaded with peptide by CD8+ T cells ([6]; CD8+ T cells from freshly isolated PBMC of T1D patients (11 total patients tested)): failed to specifically inhibit | Inhibition of H3B2 cells loaded with peptide by CD8+ T cells ([6]; CD8+ T cells from normal controls): specifically inhibited | Inhibition of HLA-E transfected clones loaded with peptide by CD8(H) ([6]; CD8+ T cells primed in vitro with Hsp60sp loaded dendritic cells): specifically inhibit | Competition with B7sp for occupancy of HLA-E (Qa-1/HLA-E; human studies): capable of competing with B7sp peptide | Interaction of HLA-E/peptide complex with CD94/NKG2A (CD94/NKG2A [7]): does not interact with CD94/NKG2A

Substance: VLGGGVALLRVIPALDSLTPANED [p277]
Protection from subsequently induced EAE (EAE in B10PL mice): equally effectively protected from EAE | Protection from spontaneously developed T1D (T1D in NOD mice): completely protected NOD mice from spontaneously developed T1D up to 35 week's of age
